Data set [1] has as its target T1, P-gp (Homo sapiens, UniProt P08183). In words: Calcein-AM transport inhibition in MDCK-MDR1 cells. The data set is classed as cell-based. Also noted: expressed in transfected cells; host or cells: MDCK (Madin-Darby Canine Kidney). Conditions: mean ± SEM. An excerpt:
(§1) The MDR interaction potency of these compounds was studied by detecting the inhibition of the P-gp-, MRP1- or BCRP-mediated efflux of a substrate in cells overexpressing the studied pumps. In detail, we measured the following: (i) the transport inhibition of the profluorescent probe calcein-AM (P-gp and MRP1 substrate) in MDCK-MDR1 and MDCK-MRP1 cells (P-gp- and MRP1-overexpressing cells, respectively); (ii) the transport inhibition of the fluorescent probe Hoechst 33342 (BCRP substrate) in MDCK-BCRP cells (BCRP-overexpressing cells).
Experiments were performed as previously described. MDCK-MDR1 and MDCK-MRP1 cells (30,000 cells per well) were seeded in a 96-well black CulturePlate in 100 µL of medium and allowed to grow overnight in a humidified atmosphere of 5% CO2 at 37 °C. Tested compounds (100 µL) in a final concentration ranging between 0.01 nM and 100 µM, solubilized in culture medium, were added to the monolayers. After 30 min in a humidified atmosphere of 5% CO2 at 37 °C, 100 µL of Calcein-AM in phosphate-buffered saline (PBS) was added to obtain a final concentration of 2.5 µM and the plate was incubated for 30 min. All wells were washed 3 times with 100 µL ice-cold PBS and read with Victor3 (PerkinElmer) after adding 100 µL of cold PBS. Excitation and emission wavelengths of 485 nm and 535 nm, respectively, were used. In these experimental conditions, cell Calcein-AM accumulation in the absence and in the presence of each tested compound was evaluated and compared to the basal level of fluorescence derived from untreated cells. The increase in fluorescence from the baseline level was measured in the treated wells. EC50 values were determined by fitting the rate of fluorescence increase versus log[dose].

Data set [2] has as its system HT29/DOX cells. The data set is described as follows: Intrinsic cytotoxicity (MTT). The data set is classed as cell-based, human. Conditions: compound alone, 1 µM, 48 h; HT29/DOX vs HT29. As for the experimental part:
(§2) All compounds were preliminarily studied to evaluate their intrinsic cytotoxicity at different concentrations (from 10 nM to 50 µM) in the parental HT29 and A549 and the resistant HT29/DOX and A549/DOX cells using the MTT assay.
(§3) The intrinsic toxicity of the studied compounds was determined by an MTT assay. K562 and K562/DOX were exposed for 72 h with compounds at 1 and 3 µM concentrations while HT29, A549, HT29/DOX and A549/DOX cells were incubated for 48 h with compounds used at different concentrations (from 10 nM to 50 µM). The percentage of growth compared to the untreated control was transformed into histograms with the GraphPad Prism 5 program. […]

The subject of data set [3] is A549/DOX cells. The data set is described as follows: Intrinsic cytotoxicity (MTT). The data set is classed as cell-based, human. Conditions: compound alone, 1 µM, 48 h; A549/DOX vs A549. As for the experimental part:
as §2, §3

Data set [4] deals with T1, P-gp. In words: P-gp ATPase activity (HT29/DOX cells). The data set is classed as biochemical. Also noted: endogenous in cells; host or cells: HT29/DOX (A27) and A549/DOX (A28). As to conditions: 1 µM, compared with HT29. Here is the method: (§4) Plasma-membrane vesicles enriched with P-gp were prepared by sequential centrifugation as detailed previously. The ATPase activity of immunopurified P-gp was evaluated spectrophotometrically by measuring the absorbance of the phosphate hydrolyzed from ATP at 620 nm, using a Synergy HT Multi-Detection Microplate Reader (Bio-Tek Instruments). The absorbance was converted into μmol hydrolyzed phosphate/min/mg proteins, according to the titration curve previously prepared.

The target of the next data set is T2, MRP1 (Homo sapiens, UniProt P33527).
T2 construct: expressed in transfected cells; host or cells: MDCK (Madin-Darby Canine Kidney)
In words: Calcein-AM transport inhibition in MDCK-MRP1 cells. As to conditions: mean ± SEM. Type of data set: cell-based.
Source text: as §1
Experiments were performed as previously described. MDCK-MDR1 and MDCK-MRP1 cells (30,000 cells per well) were seeded in a 96-well black CulturePlate in 100 µL of medium and allowed to grow overnight in a humidified atmosphere of 5% CO2 at 37 °C. […] All wells were washed 3 times with 100 µL ice-cold PBS and read with Victor3 (PerkinElmer) after adding 100 µL of cold PBS. […] In these experimental conditions, cell Calcein-AM accumulation in the absence and in the presence of each tested compound was evaluated and compared to the basal level of fluorescence derived from untreated cells. The increase in fluorescence from the baseline level was measured in the treated wells. EC50 values were determined by fitting the rate of fluorescence increase versus log[dose].

The test system of the next data set is K562/DOX cells. The data set is described as follows: Doxorubicin cytotoxicity enhancement assay (MTT). Type of data set: cell-based, human. Conditions: 72 h. A digest of the protocol: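 K562/DOX cells exposed 72 h to varying doxorubicin concentrations plus 1 or 3 µM test compound. Viability by MTT absorbance, expressed as percentage of untreated control cells.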

The target of the next data set is T3, hCA I (Homo sapiens, UniProt P00915).
T3 construct: made in house
The data set is described as follows: CA inhibition, stopped-flow CO2 hydrase assay. Type of data set: biochemical. As to conditions: stopped-flow technique; incubation time 6 h; mean of 3 assays. An outline of the steps: (§5)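 Stopped-flow CO2 hydration used saturated CO2 solutions at 25 °C as substrate. Enzyme and inhibitor (10 μM stocks in DMSO-water, diluted down to 0.01 nM) were preincubated for 6 h at room temperature.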

A further data set has as its target T4, hCA XII (Homo sapiens, UniProt O43570).
T4 construct: made in house
In words: CA inhibition, stopped-flow CO2 hydrase assay. Type of data set: biochemical. As to conditions: stopped-flow technique; incubation time 6 h; mean of 3 assays. A digest of the protocol:
as §5

Another data set addresses T5, hCA II (Homo sapiens, UniProt P00918).
T5 construct: made in house
The data set is described as follows: CA inhibition, stopped-flow CO2 hydrase assay. As to conditions: stopped-flow technique; incubation time 6 h; mean of 3 assays. The data set is classed as biochemical. An outline of the steps: as §5

The target of a further data set is T6, hCA IX (Homo sapiens, UniProt Q16790).
T6 construct: made in house
The data set is described as follows: CA inhibition, stopped-flow CO2 hydrase assay. The data set is classed as biochemical. Conditions: stopped-flow technique; incubation time 6 h; mean of 3 assays. A digest of the protocol: as §5

For data set [5], the system named is HT29/DOX cells. In words: TBARS (lipid peroxidation, 4-HNE kit). Type of data set: cell-based, human. Conditions: 1 µM. As for the experimental part:
(§6) Selected compounds have been tested for their cytotoxic activity at 24 h on HT29/DOX and A549/DOX cells and on the parental HT29 and A549 cells by MTT assay. To evaluate the mechanisms involved in CS, reactive oxygen species (ROS) were measured using the fluorescent probe 5-(and-6)-chloromethyl-2′,7′-dichlorodihydro-fluorescein diacetate-acetoxymethyl ester (DCFDA-AM), as previously reported. The results were expressed as nmol/mg cellular proteins. The amount of TBARS, as an index of lipoperoxidation, was measured with the Lipid Peroxidation (4-HNE) Assay Kit (Abcam, Cambridge, UK) that evaluates the 4-hydroxy-nonenale, one of the TBARS Results were expressed as nmoles/mg mitochondrial protein.

For data set [6], the system named is A549/DOX cells. The data set is described as follows: TBARS (lipid peroxidation, 4-HNE kit). The data set is classed as cell-based, human. As to conditions: 1 µM. Here is the method: as §6
For data set [7], the system named is HT29/DOX cells. In words: ROS measurement (DCFDA-AM). Type of data set: cell-based, human. Conditions: 1 µM. As for the experimental part:
as §6

The test system of data set [8] is A549/DOX cells. The data set is described as follows: ROS measurement (DCFDA-AM). Type of data set: cell-based, human. As to conditions: 1 µM. Here is the method:
as §6

The target in data set [9] is T1, P-gp. In words: P-gp ATPase activity (A549/DOX cells). Type of data set: biochemical. Conditions: 1 µM, compared with A549. Also noted: endogenous in cells; host or cells: HT29/DOX (A27) and A549/DOX (A28). As for the experimental part: as §4
Data set [10] concerns HT29/DOX cells. The data set is described as follows: Membrane fluidity. The data set is classed as cell-based, human. Conditions: 1 µM. As for the experimental part:
(§7) Membrane fluidity was measured fluorometrically using the Membrane Fluidity Kit, Abcam, according to the manufacturer’s instructions.

In data set [11] the test system is A549/DOX cells. In words: Membrane fluidity. Type of data set: cell-based, human. As to conditions: 1 µM. Here is the method: as §7

T1 sequence (P08183 whole entry): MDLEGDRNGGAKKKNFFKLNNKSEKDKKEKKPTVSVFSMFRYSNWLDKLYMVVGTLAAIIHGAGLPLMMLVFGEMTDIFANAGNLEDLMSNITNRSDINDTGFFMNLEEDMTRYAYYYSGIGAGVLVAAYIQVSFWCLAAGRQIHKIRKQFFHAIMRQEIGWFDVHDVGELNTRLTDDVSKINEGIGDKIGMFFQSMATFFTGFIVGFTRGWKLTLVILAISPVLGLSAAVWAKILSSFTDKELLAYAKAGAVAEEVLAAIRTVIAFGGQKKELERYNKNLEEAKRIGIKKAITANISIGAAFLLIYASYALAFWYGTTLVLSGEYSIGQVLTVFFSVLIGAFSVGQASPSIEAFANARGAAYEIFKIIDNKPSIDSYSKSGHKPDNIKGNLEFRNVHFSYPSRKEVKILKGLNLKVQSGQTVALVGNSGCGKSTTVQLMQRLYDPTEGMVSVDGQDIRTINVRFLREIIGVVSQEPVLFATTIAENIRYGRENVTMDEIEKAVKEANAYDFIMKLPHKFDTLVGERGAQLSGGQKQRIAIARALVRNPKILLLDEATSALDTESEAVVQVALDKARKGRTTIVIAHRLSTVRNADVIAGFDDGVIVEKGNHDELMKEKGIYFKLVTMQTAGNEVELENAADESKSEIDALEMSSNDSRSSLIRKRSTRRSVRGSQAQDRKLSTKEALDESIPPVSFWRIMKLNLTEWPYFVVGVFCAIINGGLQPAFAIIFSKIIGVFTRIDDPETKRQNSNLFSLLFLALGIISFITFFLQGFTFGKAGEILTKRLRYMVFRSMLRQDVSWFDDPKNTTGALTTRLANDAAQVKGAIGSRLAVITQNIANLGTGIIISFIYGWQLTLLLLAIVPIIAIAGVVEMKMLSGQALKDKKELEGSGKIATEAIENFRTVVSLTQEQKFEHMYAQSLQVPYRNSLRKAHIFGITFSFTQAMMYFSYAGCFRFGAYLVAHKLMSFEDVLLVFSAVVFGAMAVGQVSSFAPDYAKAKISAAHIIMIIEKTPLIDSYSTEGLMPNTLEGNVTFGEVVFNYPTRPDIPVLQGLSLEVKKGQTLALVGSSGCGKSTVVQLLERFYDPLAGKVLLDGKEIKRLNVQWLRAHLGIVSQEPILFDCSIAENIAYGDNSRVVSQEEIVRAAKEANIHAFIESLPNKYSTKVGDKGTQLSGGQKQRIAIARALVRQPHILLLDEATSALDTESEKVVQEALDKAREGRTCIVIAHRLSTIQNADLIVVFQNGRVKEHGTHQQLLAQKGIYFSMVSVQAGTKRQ
T2 sequence (P33527 whole entry): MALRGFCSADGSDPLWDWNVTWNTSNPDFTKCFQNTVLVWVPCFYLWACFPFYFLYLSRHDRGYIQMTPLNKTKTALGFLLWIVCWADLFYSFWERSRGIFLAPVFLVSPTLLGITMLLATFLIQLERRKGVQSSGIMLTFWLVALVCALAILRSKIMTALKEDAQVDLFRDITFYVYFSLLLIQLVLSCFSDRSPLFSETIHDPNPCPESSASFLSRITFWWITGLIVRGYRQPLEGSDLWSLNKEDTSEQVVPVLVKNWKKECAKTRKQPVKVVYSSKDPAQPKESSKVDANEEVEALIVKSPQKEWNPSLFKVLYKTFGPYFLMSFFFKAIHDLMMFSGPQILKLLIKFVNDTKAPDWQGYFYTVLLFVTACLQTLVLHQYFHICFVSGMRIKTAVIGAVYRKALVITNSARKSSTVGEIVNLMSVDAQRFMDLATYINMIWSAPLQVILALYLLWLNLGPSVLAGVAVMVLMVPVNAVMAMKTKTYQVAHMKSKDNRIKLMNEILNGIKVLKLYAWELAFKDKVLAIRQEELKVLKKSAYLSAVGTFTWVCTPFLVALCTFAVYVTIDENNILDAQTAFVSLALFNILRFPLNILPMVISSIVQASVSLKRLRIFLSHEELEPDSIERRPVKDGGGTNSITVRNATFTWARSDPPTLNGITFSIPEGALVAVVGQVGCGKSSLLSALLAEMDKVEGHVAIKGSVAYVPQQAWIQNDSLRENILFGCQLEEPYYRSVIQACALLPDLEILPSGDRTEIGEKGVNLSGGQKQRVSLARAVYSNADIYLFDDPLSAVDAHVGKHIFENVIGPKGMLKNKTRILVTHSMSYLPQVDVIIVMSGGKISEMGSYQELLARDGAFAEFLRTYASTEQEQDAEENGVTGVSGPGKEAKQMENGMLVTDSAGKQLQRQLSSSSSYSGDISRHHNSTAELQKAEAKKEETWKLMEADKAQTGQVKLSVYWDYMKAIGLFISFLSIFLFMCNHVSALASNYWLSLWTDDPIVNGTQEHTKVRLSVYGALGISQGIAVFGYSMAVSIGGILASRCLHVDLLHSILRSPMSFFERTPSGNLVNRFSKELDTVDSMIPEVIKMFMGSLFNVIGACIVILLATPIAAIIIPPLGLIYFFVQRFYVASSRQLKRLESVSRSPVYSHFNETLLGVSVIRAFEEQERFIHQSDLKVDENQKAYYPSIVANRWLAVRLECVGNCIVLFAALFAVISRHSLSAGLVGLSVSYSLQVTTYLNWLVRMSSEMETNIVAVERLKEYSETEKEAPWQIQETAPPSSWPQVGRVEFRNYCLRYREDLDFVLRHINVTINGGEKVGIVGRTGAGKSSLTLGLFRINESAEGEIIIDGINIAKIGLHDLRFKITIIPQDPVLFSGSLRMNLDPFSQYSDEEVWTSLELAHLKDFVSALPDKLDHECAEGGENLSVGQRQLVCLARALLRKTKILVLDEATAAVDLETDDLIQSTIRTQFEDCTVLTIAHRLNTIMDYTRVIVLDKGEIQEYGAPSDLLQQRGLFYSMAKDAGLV
T3 sequence (P00915 whole entry): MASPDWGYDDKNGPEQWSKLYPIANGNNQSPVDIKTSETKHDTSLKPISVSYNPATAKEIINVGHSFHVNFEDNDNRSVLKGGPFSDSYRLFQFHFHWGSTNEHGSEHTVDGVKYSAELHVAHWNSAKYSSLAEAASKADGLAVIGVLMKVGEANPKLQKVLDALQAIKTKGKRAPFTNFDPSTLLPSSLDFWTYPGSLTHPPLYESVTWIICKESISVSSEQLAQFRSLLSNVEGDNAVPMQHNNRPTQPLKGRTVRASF
T4 sequence (O43570 25-354): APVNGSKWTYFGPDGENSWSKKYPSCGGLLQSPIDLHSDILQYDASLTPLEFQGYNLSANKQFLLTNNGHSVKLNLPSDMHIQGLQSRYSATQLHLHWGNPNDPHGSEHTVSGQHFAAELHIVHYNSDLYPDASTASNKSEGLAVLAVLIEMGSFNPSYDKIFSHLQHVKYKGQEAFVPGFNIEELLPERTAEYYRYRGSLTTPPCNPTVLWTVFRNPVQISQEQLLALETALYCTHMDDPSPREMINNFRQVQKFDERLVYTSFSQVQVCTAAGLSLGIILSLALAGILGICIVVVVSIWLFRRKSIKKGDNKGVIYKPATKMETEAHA

Usually EC50 stands for the concentration giving half of the maximal effect. In general, Ki refers to a dissociation constant, usually derived from enzyme kinetics or from competition with a known ligand. High values mean lower affinity, low ones higher affinity. For the compound `COc1cc(CN2CCN(CCOc3ccc4ccc(=O)oc4c3)CC2)cc(OC)c1OC` [Compound 13, 7-(2-(4-(3,4,5-Trimethoxybenzyl)piperazin-1-yl)ethoxy)-2H-chromen-2-one], the EC50 on P-gp [1] was 14.5 ± 0.25 µM; at MRP1, 52 ± 10 µM. In addition, the “more cytotoxic in resistant cells than in parental sensitive cells” value with HT29/DOX cells [2] and with A549/DOX cells [3] was 15%-20% in each case. Also, the P-gp catalytic activity entry at P-gp [4] is “lowered the catalytic efficacy of P-gp in resistant cells to levels comparable to drug-sensitive HT29 and A549 cells”; at P-gp [9], “lowered the catalytic efficacy of P-gp in resistant cells to levels comparable to drug-sensitive HT29 and A549 cells”. Further, the “RF (Reversal Fold: IC50 of doxorubicin alone / in presence of modulator)” value in the data set with K562/DOX cells (compound at 1 µM) stood at 1.0; with K562/DOX cells (compound at 3 µM), 1.9. In addition, the inhibition constant (Ki) on hCA I is more than 10 µM; on hCA XII, 0.0062 µM; on hCA II, more than 10 µM; on hCA IX, 0.0237 µM. The figures for the “increase of TBARS levels compared to the control” value in the data set with HT29/DOX cells [5] and with A549/DOX cells [6] were 2.6 times and 4 times, respectively. Besides, the entries for the “increase of ROS levels compared to the control” value with HT29/DOX cells [7] and in the data set on A549/DOX cells [8] were 3–4 times and 7–8 times, respectively. The membrane fluidity result in the data set on HT29/DOX cells [10] and with A549/DOX cells [11] was “increased membrane fluidity” in each case.

These data come from PMC11279465, “Dual Inhibitors of P-gp and Carbonic Anhydrase XII (hCA XII) against Tumor Multidrug Resistance with Piperazine Scaffold” (Molecules, 2024).
